Experimental data published in patent US12643847B2, “Treprostinil derivatives and compositions and uses thereof” (CORSAIR PHARMA, INC., priority 2015, dated 2026).

Columns and labels:
PAH patients = settings: inhaled form; cited from earlier work
[1] = treprostinil as the free acid, cited from earlier work
[2] = Human liver microsomal stability assay (Test 1); assay type: in vitro ADME; settings: half-life in human liver microsomes, 0.5 μM test compound, 37° C., up to 45 min, NADPH-generating system, pH 7.4; read-out: Test 1 T1/2
Method: (Test 1) Human liver microsomal stability assay was conducted by incubating 0.5 μM test compound at 37° C. for up to 45 minutes in 50 mM potassium phosphate buffer (pH 7.4) containing 0.5 mg of microsomal protein and 50 μL of NADPH-generating system (7.8 mg of glucose 6-phosphate, 1.7 mg of NADPH and 6 U of glucose 6-phosphate dehydrogenase per mL in 2% w/v of sodium bicarbonate). At 0, 5, 15, 30 and 45 min, an aliquot was taken and quenched with internal standard-containing stop solution. No co-factor controls at 45 min were prepared. After incubation, the samples were analyzed by LC-MS/MS. Peak area ratios of analyte to internal standard were used to calculate the intrinsic clearance. The intrinsic clearance (CLint) was determined from the first-order elimination constant by non-linear regression.

[3] = Human skin homogenate stability assay (Test 3); assay type: in vitro ADME; settings: half-life in human skin homogenate, 0.5 μM test compound, 37° C., up to 45 min, NADPH-generating system, pH 7.4; read-out: Test 3 T1/2
Method: At 0, 5, 15, 30 and 45 min, an aliquot was taken and quenched with internal standard-containing stop solution. No co-factor controls at 45 min were prepared. After incubation, the samples were analyzed by LC-MS/MS. Peak area ratios of analyte to internal standard were used to calculate the intrinsic clearance. The intrinsic clearance (CLin t) was determined from the first-order elimination constant by non-linear regression.

[4] = Human plasma stability assay (Test 2); assay type: in vitro ADME; settings: half-life in heparinated human plasma, 0.5 μM test compound, 37° C.; read-out: Test 2 T1/2
Method: (Test 2) Human plasma stability assay was conducted by incubating 0.5 μM test compound at 37° C. for up to 120 min in heparinated human plasma. At 0, 5, 15, 30, 60, 120 and […], an aliquot was taken and quenched with internal standard-containing stop solution. After incubation, the samples were analyzed by LC-MS/MS. Peak area ratios of analyte to internal standard were used to calculate the half-life.

For `CCCCC[C@H](O)CC[C@@H]1[C@H]2Cc3cccc(OCC(=O)O)c3C[C@H]2C[C@H]1O` [Compound A, Treprostinil], the “PAH patients who cannot take inhaled treprostinil due to irritation” value (PAH patients) is listed as “about 50%”, the absolute oral bioavailability ([1]; oral) is listed as “less than 10%” and the systemic half-life ([1]; due to significant metabolism) is listed as “very short”.

For `CCCCC[C@H](O)CC[C@@H]1[C@H]2Cc3cccc(OCC(=O)O)c3C[C@H]2C[C@H]1OC(=O)CC` [Compound Ia-1], the half-life at 0.5 μM [2] was under 15 min, the half-life at 0.5 μM [3] was over 60 min and the half-life at 0.5 μM [4] was over 60 min.

`CCCCC[C@H](O)CC[C@@H]1[C@H]2Cc3cccc(OCC(=O)O)c3C[C@H]2C[C@H]1OC(=O)OC` [Compound Ia-10, [1-(3-hydroxyoctyl)-2-methoxycarbonyloxy-2,3,3a,4,9,9a-hexahydro-1H-cyclopenta[b]naphthalen-5-yloxy]acetic acid] gave a half-life at 0.5 μM [2] of under 15 min, a half-life at 0.5 μM [3] of over 60 min and a half-life at 0.5 μM [4] of over 60 min.

In the case of `CCCCC[C@@H](CC[C@@H]1[C@H]2Cc3cccc(OCC(=O)O)c3C[C@H]2C[C@H]1O)OC(=O)COC` [Compound Ib-8, {2-hydroxy-1-[3-(2-methoxyacetoxy)octyl]-2,3,3a,4,9,9a-hexahydro-1H-cyclopenta[b]naphthalen-5-yloxy}acetic acid], the half-life at 0.5 μM [2] is reported as under 15 min, the half-life at 0.5 μM [3] is reported as over 60 min and the half-life at 0.5 μM [4] is reported as over 60 min.

`CCCCC[C@H](O)CC[C@@H]1[C@H]2Cc3cccc(OCC(=O)OCC(=O)O)c3C[C@H]2C[C@H]1O` [II-1] showed a half-life at 0.5 μM [2] of 31 to 60 min, a half-life at 0.5 μM [3] of over 60 min and a half-life at 0.5 μM [4] of over 60 min.

With `CCCCC[C@H](O)CC[C@@H]1[C@H]2Cc3cccc(OCC(=O)O[C@H](C)C(=O)O)c3C[C@H]2C[C@H]1O` [II-2] the half-life at 0.5 μM [2] was 31 to 60 min, the half-life at 0.5 μM [3] was over 60 min and the half-life at 0.5 μM [4] was over 60 min.

In the case of `CCCCCC(O)CCC1C(O)CC2Cc3c(cccc3OCC(=O)OCCC(=O)O)CC21` (stereo not drawn) [II-4, 3-{2-[2-hydroxy-1-(3-hydroxyoctyl)-2,3,3a,4,9,9a-hexahydro-1H-cyclopenta[b]naphthalen-5-yloxy]acetoxy}propionic acid], the half-life at 0.5 μM [2] is reported as 15 to 30 min, the half-life at 0.5 μM [3] is reported as over 60 min and the half-life at 0.5 μM [4] is reported as over 60 min.

With `CCCCC[C@H](O)CC[C@@H]1[C@H]2Cc3cccc(OCC(=O)O)c3C[C@H]2C[C@H]1OC(=O)CCCC` [Ia-3] the half-life at 0.5 μM [2] was under 15 min, the half-life at 0.5 μM [3] was over 60 min and the half-life at 0.5 μM [4] was over 60 min.

`CCCCC[C@H](O)CC[C@@H]1[C@H]2Cc3cccc(OCC(=O)O)c3C[C@H]2C[C@H]1OC(=O)COCC` [Ia-9] showed a half-life at 0.5 μM [2] of under 15 min, a half-life at 0.5 μM [3] of over 60 min and a half-life at 0.5 μM [4] of over 60 min.
